Results on 2 compounds are retold here after BindingDB's records for doi:10.1016/j.bmcl.2009.09.014 (Johnson & Johnson Pharmaceutical, 2009).

The target in the assay is Cathepsin S (Homo sapiens, UniProt P25774). The assay is described as follows: Cathepsn S Inhibition Assay. Conditions: pH 5; 23 °C. On the procedure:
Enzyme assays were run using fluorescence resonance energy transfer-based substrates, (Aedens)[…](Dabcyl)K-amide and cathepsin S cleaves between amino acids Leu-6 and Ala-7. The fluorescence of the aedens group is quenched by the dabcyl moiety in the intact peptide. Upon cleavage by cathepsin S, the quenching is released and the fluorescence of the aedens group can be measured. The increase in fluorescence was measured on a Cytofluor II (Applied Biosystems, Foster City, CA) with an excitation filter of 360/40 nm and an emission filter of 460/40 nm. A reading was made every minute for 20 to 60 min, and the slope obtained from a linear regression of this time course was used as the reaction rate. The reaction rates were determined for different inhibitor concentrations, and the percentage of inhibition was determined by comparison with the reaction rate in the absence of inhibitor. IC50 values were determined by four parameter fits of plots of the percentage of inhibition versus inhibitor concentration using the program GraFit (Erithacus Software Ltd.).

Cathepsin S, sequence (P25774 whole entry): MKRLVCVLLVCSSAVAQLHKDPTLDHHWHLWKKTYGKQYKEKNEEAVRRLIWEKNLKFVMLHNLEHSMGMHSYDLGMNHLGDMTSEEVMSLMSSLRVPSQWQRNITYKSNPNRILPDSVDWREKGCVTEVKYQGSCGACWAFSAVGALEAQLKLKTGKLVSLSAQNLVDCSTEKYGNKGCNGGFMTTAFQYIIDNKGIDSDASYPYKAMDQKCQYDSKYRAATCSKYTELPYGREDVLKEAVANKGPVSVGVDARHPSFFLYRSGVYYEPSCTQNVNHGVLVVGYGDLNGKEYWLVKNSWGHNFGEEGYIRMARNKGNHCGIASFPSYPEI

Broadly, the IC50 is the midpoint of a concentration-inhibition curve. Low readings indicate greater potency in that assay, high ones weaker potency in that assay. Regarding `C#Cc1cc(-c2nn(CCCN3CCOCC3)c3c2CN(S(C)(=O)=O)CC3)ccc1Cl` [arylalkyne pyrazole-based compound, 11], it took 7.4 µM to reach half-maximal inhibition (IC50).
Consider `COC(=O)C(=O)N1CCc2c(c(-c3ccc(Cl)c(C#Cc4ccc(Cl)cc4)c3)nn2CCCN2CCOCC2)C1` [arylalkyne pyrazole-based compound, 33], for which it took 0.04 µM to reach half-maximal inhibition (IC50).
